Reference: patent US4333930A, “Orthoarylideneaminophenethylamines and pharmaceutical compositions” (priority 1980, dated 1982)

What was measured:
[1] = Oral toxicity (mortality) in the mouse, Table 1; assay type: in vivo; details: mouse, in vivo, po, Swiss mice, 14 days
Description: The mortality percentages caused by the products of the present invention administered orally to Swiss mice are shown in Table 1. The animals, free of specific pathological organism were housed in an air conditioned room from 24 to 48 hours before the start of the experiments. They were divided up into lots of 5 males and 5 females. With the animals unfed for 24 hours, the substances were administered intragastrically in a base of 6% gum arabic in a volume equal to 0.1 ml for 10 g of animal weight. The mortality was recorded at 14 days.
% of mortality as a function of the dose

phenylbenzoquinone (PBQ) = experiment: Analgesic activity using phenylbenzoquinone (PBQ) as noxious agent, Table 2; assay type: in vivo, male Swiss mouse; details: Mus musculus; for inhibition in vivo at 100 mg/kg: read-out: % of analgesic activity, 100 mg/kg, male Swiss mouse, PBQ; for inhibition in vivo at 200 mg/kg: read-out: % of analgesic activity, 200 mg/kg, male Swiss mouse, PBQ
Description: The analgesic activity was determined with the male Swiss mouse using phenylbenzoquinone (PBQ) (a variation of the method of Siegmund et al, Proc. Soc. Exp. Med., […], 95, 729-31) as the noxious agent. Twenty-eightminutes after having administered the test products in a suspension in a 6% gum base, the PBQ solution was injected. The mice were then observed ca. 5 mn. for the next five minutes.
% of analgesic activity as a function of
the dose expressed in mg/kg

[2] = system: ptosis induced by reserpine; experiment: Antagonism of ptosis induced by reserpine, Table 6; assay type: in vivo; details: po, read-out: % of inhibition of ptosis induced by reserpine
Source text: (§1) The psychotropic profile of the present invention products has been characterized with the animals in numerous tests some of whose results are shown hereinafter. The products of the invention were always administered orally in 6% gum base.
(§2) Certain tests made it possible to show antidepressive activities. These are tests of antagonism to the effects of reserpine, oxotremorine (according to Everett G. M. et al, Science, 1956, 124, 79 and Levy J. et al, Therapie 1965, 20, 265) and to despair (according to Porsolt P. D. et al, Eur. J. Pharmacol., 1978, 47, 379-91).
% of inhibition of ptosis induced by reserpine
as a function of the dose administered orally

[3] = system: trembling induced by oxotremorine; experiment: Antagonism of trembling induced by oxotremorine, Table 7; assay type: in vivo; details: po, read-out: % of inhibition of trembling induced by oxotremorine
Source text: as §1, §2
% of inhibition of trembling induced by
oxotremorine as a function of the dose
(§3) administered expressed in mg/kg

[4] = system: salivation induced by pilocarpine; experiment: Inhibition of salivation induced by pilocarpine (anticholinergic activity), Table 9; assay type: in vivo; details: oral
Source text: as §1
Certain products manifest an anticholinergic activity evidenced in the inhibition test of salivation induced by pilocarpine (Table 9).
% of inhibition of salivation induced by
pilocarpine as a function of the dose
as §3

[5] = system: number of escapes the animal made in 5 minutes; experiment: Escape test, Table 3; assay type: in vivo, mouse; details: Mus musculus, po, 5 min, read-out: % of activity (variation of the number of escapes)
Source text: The products of the invention were always administered orally in 6% gum base.
The notation NS signifies that the difference between the results noted for the product and the results noted for the excipient alone is not significant at the threshold 0.05 according to the Student t Test.

[6] = system: stereotype induced by apomorphine; experiment: Antagonism of the stereotype induced by apomorphine, Table 4; assay type: in vivo; details: for % of activity vis-a-vis the stereotype induced by apomorphine: oral; for antagonism vis-a-vis the stereotype with apomorphine: in words
Source text: as §1
% of activity vis-a-vis the stereotype
induced by apomorphine as a function of the
administered dose expressed in mg/kg

| Compound | mortality at 336 h ([1]; 1000 mg/kg) | mortality at 336 h ([1]; 1500 mg/kg) | mortality at 336 h ([1]; 2000 mg/kg) | inhibition in vivo at 100 mg/kg (phenylbenzoquinone (PBQ)) | inhibition in vivo at 200 mg/kg (phenylbenzoquinone (PBQ)) | change in vivo at 100 mg/kg [2] | change in vivo at 200 mg/kg [2] | change in vivo at 50 mg/kg [3] | change in vivo at 100 mg/kg [3] | change in vivo at 200 mg/kg [3] | change in vivo at 25 mg/kg [5] | change in vivo at 50 mg/kg [5] | change in vivo at 100 mg/kg [5] | % of activity vis-a-vis the stereotype induced by apomorphine ([6]; 50 mg/kg) | % of activity vis-a-vis the stereotype induced by apomorphine ([6]; 100 mg/kg) | % of activity vis-a-vis the stereotype induced by apomorphine ([6]; 200 mg/kg) | antagonism vis-a-vis the stereotype with apomorphine [6] | change in vivo at 200 mg/kg [5] | change in vivo at 75 mg/kg [3] | change in vivo at 150 mg/kg [3] | also measured |
| --- | --- | --- | --- | --- | --- | --- | --- | --- | --- | --- | --- | --- | --- | --- | --- | --- | --- | --- | --- | --- | --- |
| CN(C)CCc1cc2c(cc1N=Cc1ccc[n+]([O-])c1)OCO2 [COR 01 203] | 0% | 10% | 40% | 36% | 47% | -33% | -27% | -70% | -50% | -20% |  |  |  |  |  |  |  |  |  |  | inhibition in vivo at 50 mg/kg (phenylbenzoquinone (PBQ); read-out: % of analgesic activity, 50 mg/kg, male Swiss mouse, PBQ): 0%; % of inhibition of salivation induced by pilocarpine ([4]; 50 mg/kg): -32%; % of inhibition of salivation induced by pilocarpine ([4]; 200 mg/kg): -30% |
| Cc1ccc(C=Nc2cc3c(cc2CCN(C)C)OCO3)cc1 [COR 01 206] |  | 0% | 50% |  |  |  |  |  |  |  | -18% | -28% | -63% | -53% | -71% | -22% | manifest an antagonism |  |  |  |  |
| CN(C)CCc1cc2c(cc1N=Cc1ccccc1)OCO2 [COR 01 209] | 0% | 40% | 60% |  | 17% |  | -45% | -60% | -55% | -30% | -38% | -32% | -37% | -54% | -51% | -42% | manifest an antagonism | -20% | -60% | -60% | change in vivo at 5 mg/kg [5]: -28% |
| COc1ccc(C=Nc2cc3c(cc2CCN(C)C)OCO3)cc1 [COR 01 210] | 10% |  | 20% | 27% | 33% | -38% |  | -50% | -50% | -50% |  |  | -20% |  |  |  | manifest an antagonism | -72% | -40% | -30% | mortality at 336 h ([1]; 750 mg/kg): 0%; change in vivo at 150 mg/kg [5]: -26%; % of activity vis-a-vis the stereotype induced by apomorphine ([6]; 75 mg/kg): -33%; % of activity vis-a-vis the stereotype induced by apomorphine ([6]; 150 mg/kg): -33%; change in vivo at 50 mg/kg [2]: -21% |
